From patent US20230000842A1, “METHODS OF TREATING CARTILAGE DISORDERS THROUGH INHIBITION OF CLK AND DYRK” (SAMUMED, LLC, priority 2019, published 2023)

Key:
CLK3 kinase = CLK3 kinase (Homo sapiens, UniProt P49761); assay: CLK3 kinase activity assay (Z-lyte FRET); assay type: biochemical; conditions: Z-lyte Ser/Thr 18 peptide, 156 μM ATP, 1 h at room temperature;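 also: kinase activity read as coumarin/fluorescein emission ratio by FRET, unphosphorylated peptide as 0% and phosphorylated peptide as 100% control, values from non-linear regression of dose-response curves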
[1] = system: Wnt pathway activity (SW480 colon carcinoma cells stably expressing the Sp5-Luc reporter); assay: Wnt pathway activity screening assay (Sp5-Luc reporter gene assay); conditions: Homo sapiens, SW480, Table 4; SW480 cells stably expressing Sp5-Luc reporter, 10-point dose-response from 10 μM, 36 to 48 hours
[2] = system: primary human mesenchymal stem cells (hMSCs); assay: Chondrogenesis screening using primary human mesenchymal stem cells; assay type: cell-based; conditions: Homo sapiens, Mesenchymal stem cells, hMSC chondrogenesis; for EC50: concentration required to induce 50% levels of chondrogenesis with TGF-β3 as positive control, read-out: Conc (nM) of 50% TGF-β3 activity; for Emax: maximum activity relative to TGF-β3 (10 ng/mL) positive control, read-out: Max. Activity as % TGF-β3 activity
Method in brief: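 Primary hMSCs at passage 3–6 were treated across compound concentrations, with TGF-β3 as positive control. Chondrogenic nodule area per well was normalized to 3 DMSO wells on the same plate (fold over DMSO, 2–3 replicates). EC50, maximum activity and the dose reaching it were derived.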

CLK2 kinase = CLK2 kinase (Homo sapiens, UniProt P49760); assay: CLK2 kinase activity assay (Z-lyte FRET); assay type: biochemical; conditions: Z-lyte Ser/Thr 6 peptide, 60 μM ATP, 1 h at room temperature;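 also: FRET read-out as coumarin to fluorescein emission ratio, unphosphorylated peptide as 0% and phosphorylated peptide as 100% controls, duplicate reactions, non-linear regression fit of dose-response curves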
Sequence of CLK2 kinase (P49760 whole entry): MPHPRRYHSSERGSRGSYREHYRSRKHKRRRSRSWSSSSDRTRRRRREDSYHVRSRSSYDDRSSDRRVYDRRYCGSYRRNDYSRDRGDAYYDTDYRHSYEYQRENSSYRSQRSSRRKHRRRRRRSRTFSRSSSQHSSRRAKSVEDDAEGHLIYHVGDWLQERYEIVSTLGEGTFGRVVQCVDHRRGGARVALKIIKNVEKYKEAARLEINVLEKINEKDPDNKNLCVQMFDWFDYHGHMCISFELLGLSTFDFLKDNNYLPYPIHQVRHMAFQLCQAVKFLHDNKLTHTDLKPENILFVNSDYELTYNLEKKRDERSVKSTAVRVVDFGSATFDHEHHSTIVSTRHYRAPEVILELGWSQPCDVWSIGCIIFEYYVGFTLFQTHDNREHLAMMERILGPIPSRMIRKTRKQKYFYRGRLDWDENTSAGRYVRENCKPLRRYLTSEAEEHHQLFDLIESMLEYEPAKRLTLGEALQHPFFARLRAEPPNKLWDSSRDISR

Sequence of CLK3 kinase (P49761 whole entry): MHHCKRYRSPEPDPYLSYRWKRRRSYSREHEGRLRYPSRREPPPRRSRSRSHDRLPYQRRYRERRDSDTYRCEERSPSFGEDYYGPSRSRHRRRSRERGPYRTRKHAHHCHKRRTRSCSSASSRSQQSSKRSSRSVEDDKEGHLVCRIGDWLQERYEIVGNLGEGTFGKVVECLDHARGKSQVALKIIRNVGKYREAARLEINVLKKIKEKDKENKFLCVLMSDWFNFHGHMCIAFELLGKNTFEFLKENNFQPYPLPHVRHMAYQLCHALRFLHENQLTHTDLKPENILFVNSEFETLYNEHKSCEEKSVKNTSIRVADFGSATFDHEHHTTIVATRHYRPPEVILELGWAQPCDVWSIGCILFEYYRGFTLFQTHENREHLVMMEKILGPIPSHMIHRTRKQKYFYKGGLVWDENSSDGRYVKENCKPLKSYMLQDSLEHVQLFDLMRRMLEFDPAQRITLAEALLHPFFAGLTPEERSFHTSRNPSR

| EC50 (CLK3 kinase) [nM] | EC50 [1] [nM] | EC50 [2] [nM] | EC50 (CLK2 kinase) [nM] | Compound | Emax [2] [%] |
| --- | --- | --- | --- | --- | --- |
| 12 | > 10000 | 10 | 1 | Nc1cncc(-c2ccc3[nH]nc(-c4nc5c(-c6ccccc6F)cncc5[nH]4)c3n2)c1 [compound 170] | 98.2 |
| 34 | > 10000 | 10 | 1 | Nc1cncc(-c2ccc3[nH]nc(-c4nc5c(-c6ccccc6F)ccnc5[nH]4)c3n2)c1 [compound 171] | 127 |
| 117 | 8 | – | 7 | CCCC(=O)Nc1cncc(-c2cnc3[nH]nc(-c4nc5c(-c6ccccc6F)cncc5[nH]4)c3c2)c1 [compound 172] | 82.8 |
| 9840 | > 10000 | 10 | 4 | CC(C)C(=O)Nc1cncc(-c2ccc3[nH]nc(-c4nc5c(-c6ccccc6F)cncc5[nH]4)c3n2)c1 [compound 174] | 181 |
| 180 | 823 | – | 5 | O=C(Nc1cncc(-c2ccc3[nH]nc(-c4nc5c(-c6ccccc6F)cccc5[nH]4)c3n2)c1)C(F)(F)F [compound 175] | 40.1 |
| 149 | > 10000 | 10 | 6 | O=C(Nc1cncc(-c2ccc3[nH]nc(-c4nc5c(-c6ccccc6F)ccnc5[nH]4)c3n2)c1)C(F)(F)F [compound 176] | 74 |
| 209 | 1 | – | 6 | CC(C)Nc1cncc(-c2ccc3[nH]nc(-c4nc5c(-c6ccccc6F)cncc5[nH]4)c3c2)c1 [compound 177] | 56.8 |
| 207 | 35 | 30 | 5 | c1cncc(-c2ccc3[nH]nc(-c4nc5c(-c6cccnc6)cncc5[nH]4)c3c2)c1 [compound 178] | 159 |
| 969 | 92.4 | 100 | 11 | c1cncc(-c2cc3c(-c4nc5c(-c6cccnc6)cccc5[nH]4)n[nH]c3cn2)c1 [compound 179] | 93 |
| 296 | 1120 | 30 | 2 | c1cncc(-c2ccc3[nH]nc(-c4nc5c(-c6cccnc6)cccc5[nH]4)c3n2)c1 [compound 180] | 57.8 |
| 17 | > 10000 | – | 15 | c1cncc(-c2cnc3[nH]nc(-c4nc5c(-c6cccnc6)cncc5[nH]4)c3c2)c1 [compound 181] | 62.9 |
| 9840 | 28.3 | – | 11 | c1cncc(-c2cc3c(-c4nc5c(-c6cccnc6)nccc5[nH]4)n[nH]c3cn2)c1 [compound 182] | 44.5 |
| 105 | > 10000 | 100 | 1 | c1cncc(-c2ccc3[nH]nc(-c4nc5c(-c6cccnc6)nccc5[nH]4)c3n2)c1 [compound 183] | 70 |
| 177 | > 10000 | 30 | 1 | c1cncc(-c2ccc3[nH]nc(-c4nc5c(-c6cccnc6)cncc5[nH]4)c3n2)c1 [compound 184] | 83.8 |
| 308 | 1510 | 300 | 1 | c1cncc(-c2ccc3[nH]nc(-c4nc5c(-c6cccnc6)ccnc5[nH]4)c3n2)c1 [compound 185] | 94.6 |
| 37 | 5.1 | – | 4 | CC(C)C(=O)Nc1cncc(-c2ccc3[nH]nc(-c4nc5c(-c6cccnc6)cncc5[nH]4)c3c2)c1 [compound 186] | 34.4 |
| 132 | > 10000 | – | 2 | CC(C)C(=O)Nc1cncc(-c2ccc3[nH]nc(-c4nc5c(-c6cccnc6)ccnc5[nH]4)c3n2)c1 [compound 187] | 26.1 |
| 39 | 23.3 | – | 5 | O=C(Nc1cncc(-c2cnc3[nH]nc(-c4nc5c(-c6cccnc6)cncc5[nH]4)c3c2)c1)C1CC1 [compound 190] | 86.3 |
